From ChEMBL document CHEMBL1201862, “PubChem BioAssay data set” (2004)
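How tested: cells in 96-well plates exposed to compound for 48 hours at five concentrations. GI50: concentration for 50% inhibition of growth.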 Active and inactive are the calls of the source. Cut-off read from the data, not from the text of the source: active = GI50 up to about 1.1 µM and inactive = higher.

Legend:
Assay in all cases: NCI-60 cell line screen, 48 h
786-0 = tested on: 786-0
A498 = tested on: A498
A549 = tested on: A549
ACHN = tested on: ACHN
BT-549 = tested on: BT-549
CAKI-1 = tested on: CAKI-1
CCRF-CEM = tested on: CCRF-CEM
COLO 205 = tested on: COLO 205
DU-145 = tested on: DU-145
EKVX = tested on: EKVX
HCC 2998 = tested on: HCC 2998
HCT-116 = tested on: HCT-116
HCT-15 = tested on: HCT-15
HL-60 = tested on: HL-60
HOP-62 = tested on: HOP-62
HT-29 = tested on: HT-29
Hs-578T = tested on: Hs-578T
IGROV-1 = tested on: IGROV-1
K562 = tested on: K562
KM12 = tested on: KM12
LOX IMVI = tested on: LOX IMVI
M14 = tested on: M14
MCF7 = tested on: MCF7
MDA-MB-231 = tested on: MDA-MB-231
MDA-MB-435 = tested on: MDA-MB-435
MOLT-4 = tested on: MOLT-4
Malme-3M = tested on: Malme-3M
NCI-H226 = tested on: NCI-H226
NCI-H23 = tested on: NCI-H23
NCI-H460 = tested on: NCI-H460
NCI-H522 = tested on: NCI-H522
NCI/ADR-RES = tested on: NCI/ADR-RES
OVCAR-3 = tested on: OVCAR-3
OVCAR-4 = tested on: OVCAR-4
OVCAR-5 = tested on: OVCAR-5
OVCAR-8 = tested on: OVCAR-8
PC-3 = tested on: PC-3
RPMI-8226 = tested on: RPMI-8226
RXF 393 = tested on: RXF 393
SF-268 = tested on: SF-268
SF-295 = tested on: SF-295
SF-539 = tested on: SF-539
SK-MEL-28 = tested on: SK-MEL-28
SK-MEL-2 = tested on: SK-MEL-2
SK-MEL-5 = tested on: SK-MEL-5
SK-OV-3 = tested on: SK-OV-3
SN12C = tested on: SN12C
SNB-75 = tested on: SNB-75
SR = tested on: SR
SW-620 = tested on: SW-620
T47D = tested on: T47D
U-251 = tested on: U-251
UACC-257 = tested on: UACC-257
UACC-62 = tested on: UACC-62
HOP-92 = tested on: HOP-92
SNB-19 = tested on: SNB-19
TK-10 = tested on: TK-10
UO-31 = tested on: UO-31

CC(=O)/N=C1/N(/C=C2\C(=O)Oc3ccccc3C2=O)C(=O)/C(=C/c2ccc(Cl)cc2Cl)N1C
GI50 (786-0): > 100 µM (inactive)
GI50 (A498): 19.2 µM (inactive)
GI50 (A549): 96.6 µM (inactive)
GI50 (ACHN): > 100 µM (inactive)
GI50 (BT-549): 11.5 µM (inactive)
GI50 (CAKI-1): > 100 µM (inactive)
GI50 (CCRF-CEM): 66.8 µM (inactive)
GI50 (COLO 205): > 100 µM (inactive)
GI50 (DU-145): > 100 µM (inactive)
GI50 (EKVX): 18.7 µM (inactive)
GI50 (HCC 2998): > 100 µM (inactive)
GI50 (HCT-116): 81.1 µM (inactive)
GI50 (HCT-15): > 100 µM
GI50 (HL-60): 36.6 µM (inactive)
GI50 (HOP-62): 48.3 µM (inactive)
GI50 (HT-29): > 100 µM (inactive)
GI50 (Hs-578T): 0.991 µM (active)
GI50 (IGROV-1): 40 µM (inactive)
GI50 (K562): 39.4 µM (inactive)
GI50 (KM12): 66.8 µM (inactive)
GI50 (LOX IMVI): 62.2 µM (inactive)
GI50 (M14): > 100 µM (inactive)
GI50 (MCF7): > 100 µM (inactive)
GI50 (MDA-MB-231): > 100 µM (inactive)
GI50 (MDA-MB-435): 34.2 µM (inactive)
GI50 (MOLT-4): 40.7 µM (inactive)
GI50 (Malme-3M): > 100 µM (inactive)
GI50 (NCI-H226): > 100 µM (inactive)
GI50 (NCI-H23): > 100 µM (inactive)
GI50 (NCI-H460): > 10 µM (inactive)
GI50 (NCI-H522): 94 µM (inactive)
GI50 (NCI/ADR-RES): > 100 µM (inactive)
GI50 (OVCAR-3): 59.2 µM (inactive)
GI50 (OVCAR-4): > 100 µM (inactive)
GI50 (OVCAR-5): > 100 µM (inactive)
GI50 (OVCAR-8): > 100 µM (inactive)
GI50 (PC-3): > 100 µM (inactive)
GI50 (RPMI-8226): 26.4 µM (inactive)
GI50 (RXF 393): > 100 µM (inactive)
GI50 (SF-268): 28.8 µM (inactive)
GI50 (SF-295): > 100 µM (inactive)
GI50 (SF-539): 25.6 µM (inactive)
GI50 (SK-MEL-28): 73.8 µM (inactive)
GI50 (SK-MEL-2): 71.4 µM (inactive)
GI50 (SK-MEL-5): 10.9 µM (inactive)
GI50 (SK-OV-3): > 100 µM (inactive)
GI50 (SN12C): > 100 µM (inactive)
GI50 (SNB-75): 18.7 µM (inactive)
GI50 (SR): 17.4 µM (inactive)
GI50 (SW-620): 50.6 µM (inactive)
GI50 (T47D): > 100 µM (inactive)
GI50 (U-251): 52.6 µM (inactive)
GI50 (UACC-257): > 100 µM (inactive)
GI50 (UACC-62): 26.2 µM (inactive)

OC1CCN(c2c3ccccc3nc3ccccc23)CC1
GI50 (786-0): 4.99 µM (inactive)
GI50 (A498): 19 µM (inactive)
GI50 (A549): 44.4 µM (inactive)
GI50 (ACHN): 8.71 µM (inactive)
GI50 (BT-549): 17.7 µM (inactive)
GI50 (CAKI-1): 20.1 µM (inactive)
GI50 (COLO 205): 3.13 µM (inactive)
GI50 (DU-145): 5.22 µM (inactive)
GI50 (EKVX): 55.2 µM (inactive)
GI50 (HCT-116): 4.84 µM (inactive)
GI50 (HCT-15): 16.5 µM
GI50 (HL-60): 8.61 µM (inactive)
GI50 (HOP-62): 34.4 µM (inactive)
GI50 (HOP-92): 6.9 µM (inactive)
GI50 (HT-29): 2.28 µM (inactive)
GI50 (Hs-578T): 35.1 µM (inactive)
GI50 (IGROV-1): 14.6 µM (inactive)
GI50 (K562): 4.01 µM (inactive)
GI50 (KM12): 37.2 µM (inactive)
GI50 (LOX IMVI): 4.52 µM (inactive)
GI50 (M14): 6.92 µM (inactive)
GI50 (MCF7): 2.79 µM (inactive)
GI50 (MDA-MB-231): 25.1 µM (inactive)
GI50 (MDA-MB-435): 19.7 µM (inactive)
GI50 (MOLT-4): 4.73 µM (inactive)
GI50 (Malme-3M): 9.82 µM (inactive)
GI50 (NCI-H226): 34.2 µM (inactive)
GI50 (NCI-H23): 8.02 µM (inactive)
GI50 (NCI-H460): 21.3 µM (inactive)
GI50 (NCI-H522): 2.92 µM (inactive)
GI50 (NCI/ADR-RES): > 100 µM (inactive)
GI50 (OVCAR-3): 7.23 µM (inactive)
GI50 (OVCAR-4): 17.6 µM (inactive)
GI50 (OVCAR-5): 51.8 µM (inactive)
GI50 (OVCAR-8): 24.8 µM (inactive)
GI50 (PC-3): 25.5 µM (inactive)
GI50 (RPMI-8226): 4.82 µM (inactive)
GI50 (RXF 393): 4.55 µM (inactive)
GI50 (SF-268): 17.2 µM (inactive)
GI50 (SF-295): 27.9 µM (inactive)
GI50 (SF-539): 33 µM (inactive)
GI50 (SK-MEL-28): 2.69 µM (inactive)
GI50 (SK-MEL-2): 5.52 µM (inactive)
GI50 (SK-MEL-5): 19.7 µM (inactive)
GI50 (SK-OV-3): 39.7 µM (inactive)
GI50 (SN12C): 32.4 µM (inactive)
GI50 (SNB-19): 27.9 µM (inactive)
GI50 (SNB-75): 23.8 µM (inactive)
GI50 (SR): 2.77 µM (inactive)
GI50 (SW-620): 3.36 µM (inactive)
GI50 (T47D): 1.51 µM (inactive)
GI50 (TK-10): 4.03 µM (inactive)
GI50 (U-251): 21.5 µM (inactive)
GI50 (UACC-257): 20.4 µM (inactive)
GI50 (UACC-62): 35.5 µM (inactive)
GI50 (UO-31): 2.45 µM (inactive)
